Among the test systems are CAKI-1 renal; HT29 colon; KM12 colon; MALME-3M melanoma; NCI/ADR-RES ovarian; SF-268 CNS; SK-MEL-28 melanoma; SNB-75 CNS; UACC-257 melanoma; MCF7 breast.
Assay in all cases: NCI anticancer screen, dose series, 48 h

The values that follow come from PubChem BioAssay (NCI).

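Where inhibition never reached the appropriate level, the endpoint shown equals the highest concentration tested. Otherwise, values were interpolated linearly from a five-concentration, 48-hour dose response in 96-well plates. TGI denotes the concentration required for complete inhibition of growth.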

As to `Cn1c(=O)c2[nH]c(CCCCC(=O)O)nc2n(C)c1=O`, the TGI in the assay on CAKI-1 renal, with HT29 colon, in the assay with KM12 colon, with MALME-3M melanoma, in the assay with NCI/ADR-RES ovarian and with SF-268 CNS was more than 100 µM throughout. Also, the TGI with SK-MEL-28 melanoma, with SNB-75 CNS and in the assay on UACC-257 melanoma was more than 100 µM throughout.
For `N#Cc1nc(C2=C(Cl)c3ccccc3OC2)[nH]c1C#N`, the TGI in the assay on CAKI-1 renal was more than 100 µM; in the assay with HT29 colon it was 41.5 µM; with KM12 colon, 71.9 µM; in the assay on MCF7 breast it was 70 µM; in the assay on NCI/ADR-RES ovarian it was more than 100 µM; in the assay on SF-268 CNS, more than 100 µM. Besides, the TGI in the assay with SK-MEL-28 melanoma turned out to be 56.8 µM.
Regarding `COc1cc(O)c2c(c1)OCC(Cc1ccc(O)cc1)C2=O` (stereo not drawn), the TGI in the assay on CAKI-1 renal, in the assay with HT29 colon, in the assay on KM12 colon, with MALME-3M melanoma, in the assay with NCI/ADR-RES ovarian and in the assay with SF-268 CNS was more than 100 µM each time. In addition, the TGI with SK-MEL-28 melanoma, in the assay with SNB-75 CNS and in the assay with UACC-257 melanoma was more than 100 µM each time.
With `CC(C)=CC(=O)C[C@H]1C(=O)O[C@@H]2C[C@H]3C(C)=CC(=O)[C@@H](O)[C@]3(C)[C@H]3[C@@]4(O)OC[C@]32[C@@H]1[C@@H](C)[C@H]4O`, the TGI in the assay on CAKI-1 renal was more than 50.2 µM; in the assay with KM12 colon, 12.8 µM; in the assay on MALME-3M melanoma, 0.0619 µM; in the assay on NCI/ADR-RES ovarian, 11 µM; in the assay on SF-268 CNS, 0.21 µM; in the assay with SK-MEL-28 melanoma, 0.172 µM. In addition, the TGI came to 0.103 µM in the assay with SNB-75 CNS and 0.608 µM with UACC-257 melanoma.
Regarding `Cc1ccc(S(=O)(=O)OC(c2ccc(Cl)cc2Cl)C2OC(=O)c3ccccc32)cc1` (stereo not drawn), the TGI in the assay with HT29 colon, in the assay with KM12 colon, in the assay on MALME-3M melanoma, with SF-268 CNS and with SK-MEL-28 melanoma was more than 100 µM each time.
Turning to `CCOP(=O)(O)C1C(CO)OC(n2ccc(=O)[nH]c2=O)C1O` (stereo not drawn), the TGI with CAKI-1 renal, in the assay on HT29 colon, with KM12 colon, with MALME-3M melanoma, in the assay with SF-268 CNS and with SK-MEL-28 melanoma was more than 100 µM in each case. Besides, the TGI in the assay on SNB-75 CNS and in the assay on UACC-257 melanoma was more than 100 µM each time.
As for `COc1ccc(O)c(/C(C)=N/NC(=S)N(C)C)c1`, the TGI with CAKI-1 renal was more than 94.5 µM; with HT29 colon, more than 100 µM; in the assay on KM12 colon, more than 100 µM; with MALME-3M melanoma it was more than 100 µM; with NCI/ADR-RES ovarian, more than 100 µM; in the assay on SF-268 CNS it was more than 100 µM. Besides, the TGI with SK-MEL-28 melanoma, in the assay with SNB-75 CNS and in the assay with UACC-257 melanoma was more than 100 µM in each case.
Consider `Cc1nn(C(=O)Cc2ccccc2)c2c1C(c1ccc(N(C)C)cc1)SC(N)=N2` (stereo not drawn), for which the TGI in the assay on CAKI-1 renal, in the assay with HT29 colon, with KM12 colon, in the assay with MALME-3M melanoma, in the assay with MCF7 breast and in the assay with SF-268 CNS was more than 100 µM in each case. For the same molecule, the values for the TGI in the assay with SK-MEL-28 melanoma, in the assay with SNB-75 CNS and with UACC-257 melanoma were more than 100 µM, 32.9 µM and more than 100 µM, respectively.
As for `Clc1ccccc1/C=C/c1cscn1`, the TGI in the assay on HT29 colon, in the assay on KM12 colon, with MALME-3M melanoma, in the assay on SF-268 CNS, in the assay on SK-MEL-28 melanoma and with SNB-75 CNS was more than 100 µM throughout. In the assay on UACC-257 melanoma, this molecule returned a TGI of more than 100 µM.
Regarding `CC(=O)OCCOCn1cnc2c(Cl)nc(Cl)nc21`, the TGI in the assay on CAKI-1 renal worked out at 0.832 µM; in the assay with HT29 colon, 32.9 µM; in the assay with KM12 colon, 44.1 µM; with MALME-3M melanoma, 33.3 µM; with NCI/ADR-RES ovarian, 57.5 µM; with SF-268 CNS, 36.6 µM. The TGI with SNB-75 CNS is 51.7 µM; in the assay with UACC-257 melanoma, 36.8 µM.
As for `CCN(CC)CC(=O)O[C@]1(CC)C(=O)OCc2c1cc1n(c2=O)Cc2cc3ccccc3nc2-1`, the TGI in the assay on CAKI-1 renal turned out to be 0.145 µM; in the assay with KM12 colon it was 0.862 µM; with MALME-3M melanoma, 2.61 µM; with NCI/ADR-RES ovarian, 0.165 µM; in the assay on SK-MEL-28 melanoma, 39.1 µM; in the assay on SNB-75 CNS, 0.677 µM. For the same molecule, the TGI in the assay with UACC-257 melanoma is 1.05 µM.
Turning to `CN1C2CCC1CC(CCNC(c1ccccc1)c1ccccc1)C2` (stereo not drawn), the TGI with CAKI-1 renal is more than 100 µM; with HT29 colon, more than 100 µM; in the assay on KM12 colon, more than 100 µM; in the assay with MALME-3M melanoma, 31.4 µM; in the assay on NCI/ADR-RES ovarian, more than 100 µM; with SF-268 CNS it was more than 100 µM. Also, the TGI in the assay with SK-MEL-28 melanoma was 34.2 µM; in the assay on SNB-75 CNS, more than 100 µM; in the assay on UACC-257 melanoma, 31.8 µM.
Take `CC(=O)N[C@@H](Cc1ccc(O)cn1)C(=O)NCc1cccc(Cl)c1`: the TGI in the assay with CAKI-1 renal, with HT29 colon, with KM12 colon, with MCF7 breast, with NCI/ADR-RES ovarian and in the assay on SF-268 CNS was more than 100 µM throughout. In addition, the TGI in the assay on SK-MEL-28 melanoma and with UACC-257 melanoma was more than 100 µM each time.
